What was measured:
[1] = test system: CD1 mice with experimental AMI (permanent coronary artery ligation); assay: Circulating levels of cytokines and soluble adhesion molecules at day 28 (Luminex, Example 4); type: in vivo, mouse; details: day 28 after surgery, vs vehicle
Protocol: (§1) Adult out-bred male CD1 mice (8-12 weeks of age) were supplied by Harlan Sprague Dawley (Indianapolis, Ind.). The experiments were conducted under the guidelines of laboratory animals for biomedical research published by National Institutes of Health (No. 85-23, revised 1996). The study protocol was approved by the Virginia Commonwealth University Institutional Animal Care and Use Committee. Experimental AMI was induced by permanent coronary artery ligation in order to induce a large non-reperfused infarct involving approximately 30% of the left ventricle and leading to an ischemic dilated cardiomyopathy (Mezzaroma et al. Proc Natl Acad Sci 2011—in press and Abbate et al. Circulation 2008; 117:2670-83). Briefly, mice were orotracheally intubated under anesthesia (pentobarbital 50 to 70 mg/kg), placed in the right lateral decubitus position, then subjected to a left thoracotomy, pericardiectomy, and ligation of the proximal left coronary artery. The chest was closed and the animals were allowed to recover. The mice surviving surgery were randomly assigned to the different groups of treatment (N=6-15 per group). Sham operations were performed wherein animals underwent the same surgical procedure without coronary artery ligation (N=4-8 per group).
The A2B AdoR antagonist, Compound A, was obtained from Gilead Sciences, Foster City, Calif. Mice were randomly assigned to treatment with Compound A (4 mg/kg) or matching dose of vehicle administered intraperitoneally (final volume 0.13 mL) every 12 hours for 14 days starting immediately after coronary artery ligation surgery. An additional group of mice received a lower dose of Compound A (2 mg/kg) to explore a dose-response relationship. Two additional groups of mice received Compound A (4 mg/kg) starting 1 hour after surgery to simulate a clinical scenario of treatment delay. […] To simulate a clinically relevant scenario in which drug treatment may occur with some delay after AMI, this example compared treatment with Compound A without delay with groups in which the A2B AdoR antagonist was given with 1 hour of delay.
The plasma concentrations of IL-1β and […], Tumor Necrosis Factor-α (TNF-α) and soluble adhesion molecules (E-selectin, Intercellular adhesion molecule-1 [ICAM-1] and vascular cellular adhesion molecule [VCAM]), that are induced by IL-1β, were determined at day 28 after surgery using Luminex kits obtained from Millipore (Billerica, Mass.) according to the manufacturer's instructions. A blood sample was obtained via a direct cardiac puncture immediately prior to killing the animals.

[2] = test system: rats with MI (25 minutes coronary occlusion followed by reperfusion); assay: VT inducibility in rat model of post-MI remodeling (Example 6); type: in vivo; details: 5 weeks post-MI; total N 11
Protocol: (§2) The effects of Compound A in a rat model of post-MI remodeling and VT were determined. MI was caused by 25 minutes occlusion at the left anterior descending coronary ligation followed by reperfusion. One week later, rats were administered either vehicle or Compound A (100 mg/kg) once daily by oral gavage. Serial echocardiograms (ECHOs) to measure LV ejection fraction (LVEF), stroke volume and LV end systolic volume (LVESV) were obtained at baseline, 1 week and 5 week post-MI. Electrophysiological studies, optical mapping, histology and biomarker analysis were conducted at 5 week post-MI.
Ventricular tachycardia (VT) is a common cause of mortality in post-MI patients, even with current coronary revascularization treatment. In this rat model of post-MI remodeling, VT was consistently inducible in more than half of the animals. Thus, the effect of Compound A in VT inducibility was determined at 5 weeks post-MI.

[3] = test system: rats with MI (25 minutes coronary occlusion followed by reperfusion); assay: Rat model of post-MI remodeling: serial echocardiograms (Example 6); type: in vivo
Protocol: as §2

[4] = test system: CD1 mice with experimental AMI (permanent coronary artery ligation); assay: Transthoracic echocardiography of cardiac remodeling after AMI (Example 4); type: in vivo, mouse
Protocol: as §1
The A2B AdoR antagonist, Compound A, was obtained from Gilead Sciences, Foster City, Calif. Mice were randomly assigned to treatment with Compound A (4 mg/kg) or matching dose of vehicle administered intraperitoneally (final volume 0.13 mL) every 12 hours for 14 days starting immediately after coronary artery ligation surgery. An additional group of mice received a lower dose of Compound A (2 mg/kg) to explore a dose-response relationship. Two additional groups of mice received Compound A (4 mg/kg) starting 1 hour after surgery to simulate a clinical scenario of treatment delay. […]
All mice underwent transthoracic echocardiography at baseline (before surgery), and at 7, 14 and 28 days after surgery (prior to sacrifice). […] This example measured the left ventricular (LV) end-diastolic and end-systolic areas at B-Mode and the LV end-diastolic diameter (LVEDD), LV end-systolic diameters (LVESD), LV anterior wall diastolic thickness (LVAWDT), and LV posterior wall diastolic thickness (LVPWDT) at M-Mode, as previously described (Abbate et al. Circulation 2008; 117:2670-83; Toldo et al. PloS One 2011; 6:e18102) and according to the American Society of Echocardiography recommendations (Gardin et al. J Am Soc Echocardiogr 2002; 15:272-90). LV fractional shortening (FS), LV ejection fraction (EF), LV mass and eccentricity (LVEDD/LVPWDT ratio) were calculated (Abbate et al. Circulation 2008; 117:2670-83; Toldo et al. PloS One 2011; 6:e18102; Gardin et al. J Am Soc Echocardiogr 2002; 15:272-90). The transmitral and left ventricular out flow tract Doppler spectra were recorded from an apical 4-chamber views, and the myocardial performance index (MPI or Tei index) was calculated as the […] of the isovolumetric contraction and relaxation time divided by the ejection time (Tei et al. Am J Cardiol 1995; 26:357-366). LV stroke volume was calculated using the Velocity-Time Integral (VTI) of the LV outflow tract flow multiplied by the LV outflow tract area, and cardiac output was calculated multiplying LV stroke volume by the heart rate (Abbate et al. Circulation 2008; 117:2670-83; Toldo et al. PloS One 2011; 6:e18102; Gardin et al. J Am Soc Echocardiogr 2002; 15:272-90). […]

ob/ob model mice = assay: Inflammatory biomarker expression in ob/ob mice after 28-day dosing (Example 5); type: in vivo, mouse
Protocol: The A2B antagonist, Compound A (3 mg/kg/day or 10 mg/kg/day), was given to 6 weeks old ob/ob model mice for 28 days. At the end of the 28-day dosing, expression of a number of inflammatory biomarkers, MCP-1, IL-1b, IL-2 and IL-6, were measured in these mice as compared to control (vehicle).

[5] = 3 mg/kg/day or 10 mg/kg/day for 28 days, vs vehicle

CCCn1c(=O)c2[nH]c(-c3cnn(Cc4cccc(C(F)(F)F)c4)c3)nc2n(CC)c1=O [Compound A, 3-ethyl-1-propyl-8-(1-(3-(trifluoromethyl)benzyl)-1H-pyrazol-4-yl)-1H-purine-2,6(3H,7H)-dione]
E-selectin plasma level [1]: significantly reduced | ICAM-1 plasma level [1]: significantly reduced | IL-6 plasma level [1]: significantly reduced | TNF-α plasma level [1]: significantly reduced | VCAM plasma level [1]: significantly reduced | No VT (number of animals) [2]: 10 | VT (number of animals) [2]: 1 | increase in LVESV ([3]; 100 mg/kg once daily oral gavage from 1 week post-MI): significantly reduced | LVEF ([3]; 1 week post-MI (start of dosing), Compound A group): 53.1±3.2% | LVEF ([3]; 5 weeks post-MI, 100 mg/kg once daily oral gavage from 1 week post-MI, vehicle 40.7±2.2): 55.6±2.6% | myocardial diastolic/systolic performance (myocardial performance index) ([4]; AMI mice): preservation | right ventricular enlargement and dysfunction ([4]; AMI mice): less | absolute difference in mean LVEF vs vehicle ([4]; LV systolic function significantly greater in Compound A group): 5% | reduction of LV enlargement after AMI ([4]; at 28 days): approximately 40% | left and right ventricular enlargement and dysfunction ([4]; every 12 hours from surgery for 14 days, at 7 days, maintained at 14 and 28 days): significant attenuation | expression of IL-1b (ob/ob model mice; [5]): went down | expression of IL-2 (ob/ob model mice; [5]): went down | expression of IL-6 (ob/ob model mice; [5]): went down | expression of MCP-1 (ob/ob model mice; [5]): went down | reduction of IL-1b expression (ob/ob model mice; 10 mg/kg/day group, 28 days): statistically significant | reduction of MCP-1 expression (ob/ob model mice; 10 mg/kg/day group, 28 days): statistically significant

Source: patent US20120258974A1, “USE OF A2B ADENOSINE RECEPTOR ANTAGONISTS FOR TREATING HEART FAILURE AND ARRHYTHMIA IN POST-MYOCARDIAL INFARCTION PATIENTS” (GILEAD SCIENCES, INC., priority 2011, published 2012)
